Laboratory results published in article PMC9138505, “Small Molecule 20S Proteasome Enhancer Regulates MYC Protein Stability and Exhibits Antitumor Activity in Multiple Myeloma” (Biomedicines, 2022).
Values joined by “and” are separate entries in the source; they are usually repeats but may differ in a detail not shown here. Identical values can stand only once.

Tested on: RPMI-8226 cells
Assay: Gene expression profiling, NanoString nCounter PanCancer Pathways Panel, ROSALIND analysis
Type: cell-based, human
Protocol: RPMI-8226 cells were treated with vehicle or TCH-165 (10 μM) for 4 h. Total RNA was obtained using the mirVana miRNA Isolation Kit, with phenol (Thermofisher Scientific; AM1560; Waltham, MA, USA). Total RNA was quantified by Qubit (Thermofisher Scientific; Q32855; Waltham, MA, USA). and gene expression was evaluated against the nCounter® PanCancer Pathways Panel^TM according to the standard NanoString protocol.
Data were analyzed by ROSALIND® [36] with a hyperscale architecture developed by ROSALIND, Inc. (San Diego, CA, USA). Normalization, fold changes and p-values were calculated using criteria provided by NanoString. ROSALIND follows the nCounter® Advanced Analysis protocol of dividing counts within a lane by the geometric mean of the normalizer probes from the same lane. Housekeeping probes to be used for normalization are selected based on the geNorm algorithm, as implemented in the NormqPCR R library. Fold changes and p-values are calculated using the fast method as described in the nCounter Advanced Analysis 2.0 User Manual. The p-value adjustment is performed using the Benjamini–Hochberg method of estimating false discovery rates (FDR). Clustering of genes for the final heatmap of differentially expressed genes was done using the PAM (Partitioning Around Medoids) method using the fpc R library. Hypergeometric distribution was used to analyze the enrichment of pathways, gene ontology, domain structure and other ontologies. The topGO R library was used to determine local similarities and dependencies between GO terms in order to perform Elim pruning correction. Several database sources were referenced for enrichment analysis, including Interpro [40], NCBI [41], MSigDB [42, 43], REACTOME [44], WikiPathways. Enrichment was calculated relative to a set of background genes relevant to the experiment.

[1] = RPMI-8226 cells, TCH-165 treatment samples 1-3

## CCOC(=O)[C@]1(c2ccccc2)N=C(c2ccc(OC)cc2)N(Cc2ccccc2)[C@@H]1c1ccc(NCc2ccccc2)cc1 [TCH-165]
RPMI-8226, TCH-165 samples 1-3
  VEGFC normalized gene expression: 4.571 and 4.699 and 4.731
  VHL normalized gene expression: 9.098 and 9.164 and 9.268
  WEE1 normalized gene expression: 9.934 and 9.744 and 9.778
  WHSC1L1 normalized gene expression: 9.091 and 9.1675 and 9.063
  WHSC1 normalized gene expression: 9.949 and 9.835 and 9.719
  WIF1 normalized gene expression: 5.758 and 4.855 and 4.805
  WNT2B normalized gene expression: 5.308 and 4.427 and 4.528
  WNT2 normalized gene expression: 5.827 and 5.242 and 5.592
  WNT3 normalized gene expression: 5.044 and 4.7789 and 4.9095
  WNT4 normalized gene expression: 4.488 and 3.817 and 3.5707
  WNT5A normalized gene expression: 6.308 and 6.154 and 6.184
  WNT6 normalized gene expression: 4.924 and 4.739 and 4.437
  WNT7A normalized gene expression: 5.208 and 4.962 and 4.9095
  WNT7B normalized gene expression: 3.723 and 3.27 and 3.805
  WNT10B normalized gene expression: 5.259 and 5.27 and 5.211
  WNT11 normalized gene expression: 4.308 and 4.154 and 3.876
  WNT16 normalized gene expression: 4.986 and 4.27 and 4.693
  WT1 normalized gene expression: 4.571 and 4.476 and 4.341
  XPA normalized gene expression: 8.195 and 7.97 and 8.109
  XRCC4 normalized gene expression: 8.283 and 8.506 and 8.426
  ZAK normalized gene expression: 4.793 and 4.2133 and 4.238
  ZBTB16 normalized gene expression: 2.986 and 2.891 and 3.0682
  ZBTB32 normalized gene expression: 4.101 and 4.093 and 3.731
  ZIC2 normalized gene expression: 4.86 and 4.154 and 4.291
[1]
  Normalized gene expression, ACVR1C: 4.723 and 4.614 and 4.693
  Normalized gene expression, ALKBH2: 6.955 and 6.808 and 6.991
  Normalized gene expression, ALKBH3: 8.467 and 8.37 and 8.417
  Normalized gene expression, AMER1: 6.704 and 6.569 and 6.56
  Normalized gene expression, APH1B: 6.101 and 5.7789 and 5.991
  Normalized gene expression, ARID1B: 9.42 and 9.304 and 9.241
  Normalized gene expression, ARID2: 9.514 and 9.28 and 9.287
  Normalized gene expression, ASXL1: 9.934 and 9.758 and 9.627
  Normalized gene expression, BIRC7: 4.401 and 4.2133 and 4.0682
  Normalized gene expression, BMP8A: 6.156 and 5.759 and 5.787
  Normalized gene expression, BRIP1: 8.576 and 8.341 and 8.466
  Normalized gene expression, CACNA2D3: 2.986 and 2.154 and 2.483
  Normalized gene expression, CACNA2D4: 4.793 and 4.739 and 4.291
  Normalized gene expression, CACNG6: 5.101 and 4.093 and 4.653
  Normalized gene expression, CALML6: 4.986 and 4.996 and 5.038
  Normalized gene expression, CARD11: 6.55 and 6.729 and 6.472
  Normalized gene expression, CASP12: 5.208 and 4.891 and 4.653
  Normalized gene expression, CCNB3: 2.401 and 3.3768 and 3.184
  Normalized gene expression, COL6A6: 3.986 and 4.324 and 4.184
  Normalized gene expression, COL24A1: 5.488 and 5.2133 and 5.316
  Normalized gene expression, COL27A1: 4.986 and 5.154 and 5.098
  Normalized gene expression, CREB3L1: 3.86 and 3.657 and 3.39
  Normalized gene expression, CREB3L3: 2.723 and 2.891 and 2.943
  Normalized gene expression, CREB3L4: 7.001 and 6.678 and 6.702
  Normalized gene expression, CRLF2: 5.723 and 5.798 and 5.75
  Normalized gene expression, CXXC4: 6.156 and 6.2133 and 5.858
  Normalized gene expression, DTX3: 3.986 and 4.2133 and 4.238
  Normalized gene expression, FAAP24: 7.343 and 7.012 and 7.17
  Normalized gene expression, FBXW7: 6.571 and 6.488 and 6.528
  Normalized gene expression, GDF6: 4.101 and 4.657 and 4.0068
  Normalized gene expression, GNG12: 4.793 and 4.855 and 4.693
  Normalized gene expression, H3F3C: 12.4579 and 12.5235 and 12.4804
  Normalized gene expression, HDAC10: 8.066 and 7.808 and 7.722
  Normalized gene expression, HDAC11: 5.156 and 4.927 and 5.291
  Normalized gene expression, HES5: 6.355 and 5.657 and 5.893
  Normalized gene expression, HHIP: 3.986 and 3.739 and 3.653
  Normalized gene expression, IL22RA1: 5.156 and 5.0613 and 5.316
  Normalized gene expression, IL22RA2: 5.445 and 4.817 and 4.437
  Normalized gene expression, IL23R: 4.986 and 4.614 and 4.291
  Normalized gene expression, KMT2C: 9.426 and 9.461 and 9.455
  Normalized gene expression, LAMA1: 4.986 and 4.27 and 4.184
  Normalized gene expression, MAML2: 8.948 and 9.039 and 8.92
  Normalized gene expression, NFKBIZ: 7.259 and 6.9093 and 6.832
  Normalized gene expression, NKD1: 5.445 and 5.3768 and 5.437
  Normalized gene expression, NSD1: 7.758 and 7.832 and 7.75
  Normalized gene expression, PAK7: 2.986 and 3.891 and 3.39
  Normalized gene expression, PDGFC: 6.509 and 6.415 and 6.1271
  Normalized gene expression, PDGFD: 4.401 and 4.27 and 4.0068
  Normalized gene expression, PHF6: 9.829 and 9.914 and 9.8
  Normalized gene expression, PLA2G4E: 3.86 and 4.029 and 4.0682
  Normalized gene expression, PLA2G4F: 4.208 and 4.154 and 3.483
  Normalized gene expression, POLD4: 8.314 and 8.1355 and 8.194
  Normalized gene expression, PRMT8: 4.308 and 4.476 and 4.341
  Normalized gene expression, PTCRA: 3.986 and 4.3768 and 4.238
  Normalized gene expression, PTPN5: 4.571 and 4.476 and 4.39
  Normalized gene expression, SHC4: 5.571 and 4.891 and 5.0068
  Normalized gene expression, SOX17: 4.101 and 4.154 and 3.483
  Normalized gene expression, SPRY4: 5.044 and 5.093 and 5.366
  Normalized gene expression, SUV39H2: 8.912 and 8.7789 and 8.832
  Normalized gene expression, TBL1XR1: 13.2408 and 13.1822 and 13.1378
  Normalized gene expression, TCF7L1: 5.101 and 4.739 and 5.461
  Normalized gene expression, THEM4: 7.581 and 7.249 and 7.3536
  Normalized gene expression, TNN: 4.986 and 4.7789 and 4.39
  Normalized gene expression, TRAF7: 10.2015 and 10.0643 and 10.0175
  Normalized gene expression, TSLP: 4.571 and 4.699 and 4.769
  Normalized gene expression, WNT5B: 5.208 and 5.093 and 5.238
  Normalized gene expression, WNT10A: 5.924 and 6.045 and 6.17
